Experimental data reported in patent US10806726B2, “Methods of using indazole-3-carb oxamides and their use as Wnt/B-catenin signaling pathway inhibitors” (Samumed, LLC, priority 2016, dated 2020).

Assays:
[1] = tested on: Wnt-responsive promoter driving firefly luciferase in SW480 cells; assay: Wnt reporter (SP5 promoter-luciferase) screening assay in SW480 cells; type: cell-based; conditions: Homo sapiens, 24-40 h, top concentration ten micromolar
Description: Another screening assay for Wnt activity is described as follows. Reporter cell lines can be generated by stably transducing cells of cancer cell lines (e.g., colon cancer) with a lentiviral construct that include a Wnt-responsive promoter driving expression of the firefly luciferase gene.
Lentiviral constructs can be made in which the SP5 promoter, a promoter having eight TCF/LEF binding sites derived from the SP5 promoter, is linked upstream of the firefly luciferase gene. The lentiviral constructs can also include a hygromycin resistance gene as a selectable marker. The SP5 promoter construct can be used to transduce SW480 cells, a colon cancer cell line having a mutated APC gene that generates a truncated APC protein, leading to de-regulated accumulation of β-catenin.
Cultured SW480 cells bearing a reporter construct can be distributed at approximately 10,000 cells per well into 96 well or 384 well plates. Compounds from a small molecule compound library can then be added to the wells in half-log dilutions using a ten micromolar top concentration. A series of control wells for each cell type receive only buffer and compound solvent. Twenty-four to forty hours after the addition of compound, reporter activity for luciferase can be assayed, for example, by addition of the BrightGlo luminescence reagent (Promega) and the Victor3 plate reader (Perkin Elmer). Readings can be normalized to DMSO only treated cells, and normalized activities can then be used in the EC50 calculations.

[2] = tested on: primary human mesenchymal stem cells (hMSCs); assay: Tenocyte differentiation screening in hMSCs (SCXA-positive cells, 4 days); type: cell-based; conditions: 96 h, fold change over DMSO
Description: Representative compounds were screened using primary human mesenchymal stem cells (hMSCs) to determine their ability to induce tenocyte differentiation (process by which tendon is developed).
Primary human mesenchymal stem cells (hMSCs) were purchased from Lonza (Walkersville, Md.) and expanded in Mesenchymal Stem Cell Growth Media (Lonza). Cells between passage 3 and 6 were used for the experiments.
Cells were fixed using 4% formaldehyde (Electron Microscopy Sciences), and stained with anti-Sclerasis (anti-SCXA) antibodies (Abgent, San Diego, Calif.) [Webb S., et. al., Retinoic acid receptor signaling preserves tendon stem cell characteristics and prevents spontaneous differentiation in vitro, Stem Cell Research & Therapy 2016, 7:45] overnight at 4° C. […] Number of cells positive for SCXA in each well was quantified using the Celllnsight CX5. Data was normalized to the average of 12 DMSO treated wells on the same plate using Dotmatics Studies module. The normalized averages (fold change over DMSO) of 3 replicate wells for each compound concentration were calculated. Due to solubility limitations of some of the compounds, values for higher doses were manually corrected and curve fitting and EC50 determinations were performed using Dotmatics Studies.
EC50 for each compound is reported.

EC50 [1]	EC50 [2]	SMILES
322 nM	> 100000 nM	O=C(Nc1ccc(-c2ccc(F)cc2)nc1)c1n[nH]c2ccc(-c3cncc(CN4CCCCC4)c3)cc12 [compound 73, N-(6-(4-Fluorophenyl)pyridin-3-yl)-5-(5-(piperidin-1-ylmethyl)pyridin-3-yl)-1H-indazole-3-carboxamide]
67 nM	> 100000 nM	CN1CCN(Cc2cncc(NC(=O)c3n[nH]c4ccc(-c5cncc(CN6CCCCC6)c5)cc34)c2)CC1 [compound 124, N-(5-((4-Methylpiperazin-1-yl)methyl)pyridin-3-yl)-5-(5-(piperidin-1-ylmethyl)pyridin-3-yl)-1H-indazole-3-carboxamide]
40 nM	> 100000 nM	O=C(NC1CCCC1)c1ccc(NC(=O)c2n[nH]c3ccc(-c4cncc(CN5CCCCC5)c4)cc23)cn1 [compound 184, N-(6-(Cyclopentylcarbamoyl)pyridin-3-yl)-5-(5-(piperidin-1-ylmethyl)pyridin-3-yl)-1H-indazole-3-carboxamide]
63 nM	> 100000 nM	O=C(Nc1ccc(N2CCCC2)nc1)c1n[nH]c2ccc(-c3cccnc3)cc12 [compound 53, 5-(Pyridin-3-yl)-N-(6-(pyrrolidin-1-yl)pyridin-3-yl)-1H-indazole-3-carboxamide]
25 nM	> 100000 nM	O=C(Nc1ccc(N2CCCC2)nc1)c1n[nH]c2ccc(-c3cncc(CN4CCCCC4)c3)cc12 [compound 71, 5-(5-(Piperidin-1-ylmethyl)pyridin-3-yl)-N-(6-(pyrrolidin-1-yl)pyridin-3-yl)-1H-indazole-3-carboxamide]
63 nM	5020 nM	O=C(Nc1cccnc1)c1n[nH]c2ccc(-c3cncc(CN4CCCC4)c3)cc12 [compound 43, N-(Pyridin-3-yl)-5-(5-(pyrrolidin-1-ylmethyl)pyridin-3-yl)-1H-indazole-3-carboxamide]
44 nM	> 100000 nM	O=C(Nc1cccnc1)c1n[nH]c2ccc(-c3cncc(Cc4ccccc4)c3)cc12 [compound 55, 5-(5-Benzylpyridin-3-yl)-N-(pyridin-3-yl)-1H-indazole-3-carboxamide]
160 nM	625 nM	O=C(Nc1cccnc1)c1n[nH]c2ccc(-c3cncc(Oc4ccccc4)c3)cc12 [compound 56, 5-(5-Phenoxypyridin-3-yl)-N-(pyridin-3-yl)-1H-indazole-3-carboxamide]
175 nM	> 100000 nM	CN(C)C(=O)Nc1cncc(-c2ccc3[nH]nc(C(=O)Nc4cccnc4)c3c2)c1 [compound 1, 5-(5-(3,3-dimethylureido)pyridin-3-yl)-N-(pyridin-3-yl)-1H-indazole-3-carboxamide]
101 nM	> 100000 nM	O=C(Nc1ccc(-c2ccccc2)nc1)c1n[nH]c2ccc(-c3cncc(CN4CCCCC4)c3)cc12 [compound 65, N-(6-Phenylpyridin-3-yl)-5-(5-(piperidin-1-ylmethyl)pyridin-3-yl)-1H-indazole-3-carboxamide]
5000 nM	> 100000 nM	O=C(Nc1ccc(C(F)(F)F)nc1)c1n[nH]c2ccc(-c3cncc(F)c3)cc12 [compound 2, 5-(5-fluoropyridin-3-yl)-N-(6-(trifluoromethyl)pyridin-3-yl)-1H-indazole-3-carboxamide]
27 nM	6440 nM	CS(=O)(=O)c1ccc(NC(=O)c2n[nH]c3ccc(-c4cncc(CN5CCCCC5)c4)cc23)cn1 [compound 185, N-(6-(Methylsulfonyl)pyridin-3-yl)-5-(5-(piperidin-1-ylmethyl)pyridin-3-yl)-1H-indazole-3-carboxamide]
≥ 10000 nM	> 100000 nM	O=C(Nc1cccc(-c2cccc(F)c2)c1)c1n[nH]c2ccc(-c3cccnc3)cc12 [compound 5, N-(3′-Fluorobiphenyl-3-yl)-5-(pyridin-3-yl)-1H-indazole-3-carboxamide]
50 nM	12500 nM	O=C(Nc1ccc(N2CCOCC2)nc1)c1n[nH]c2ccc(-c3cncc(CN4CCCCC4)c3)cc12 [compound 69, N-(6-Morpholinopyridin-3-yl)-5-(5-(piperidin-1-ylmethyl)pyridin-3-yl)-1H-indazole-3-carboxamide]
